How the values were obtained:
[1] = Stability test of Crystal Form A in different solvents (XRPD after 3 days stirring in saturated solutions); type: physicochemical; conditions: for Crystalline (form by XRPD, 3 days later) / Status (3 days later): 0.3 mL
Protocol: The crude compound of formula (I) was dissolved in dichloromethane at 38-40° C., filtered while hot, concentrated under reduced pressure to dryness to obtain mixed crystals of formula (I). Saturated solutions of mixed crystals of the compound of formula (I) in THF and ACN were prepared at 50° C., respectively.
The suspension was centrifuged. The precipitate was taken and dried overnight in a vacuum oven at 30° C. The dried product was subjected to XRPD to determine the status of the crystal forms.

[2] = biological target: T1, human ETB receptors (Homo sapiens, UniProt P24530); experiment: In vitro antagonistic effect on human ETB receptors (Ca2+ fluorescence, transfected CHO cells); type: cell-based; conditions: 0.3 nM endothelin-1
T1 construct: host or cells: CHO cells
T1 sequence (P24530 27-442): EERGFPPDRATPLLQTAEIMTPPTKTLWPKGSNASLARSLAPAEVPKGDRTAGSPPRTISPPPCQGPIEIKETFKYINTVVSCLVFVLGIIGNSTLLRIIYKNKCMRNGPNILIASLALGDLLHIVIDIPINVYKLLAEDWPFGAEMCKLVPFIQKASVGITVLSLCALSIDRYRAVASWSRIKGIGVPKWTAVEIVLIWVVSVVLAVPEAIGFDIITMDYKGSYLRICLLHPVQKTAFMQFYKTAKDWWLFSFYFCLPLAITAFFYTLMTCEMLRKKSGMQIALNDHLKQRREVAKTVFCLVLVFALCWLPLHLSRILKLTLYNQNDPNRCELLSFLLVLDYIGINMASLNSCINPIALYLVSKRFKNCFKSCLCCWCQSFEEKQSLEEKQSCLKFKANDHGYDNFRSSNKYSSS
Protocol: The antagonist activities of the compounds on human ETB receptors expressed in transfected CHO cells were assessed by measuring the effects of the compounds on changes in cytoplasmic Ca^2+ ion signaling induced by an agonist of human ETB receptor using a fluorescence assay. The functional activity of the ETB receptor antagonistic effect was tested at Eurofins-Cerep SA according to current standard operating procedures.
• 1. Cells were suspended in DMEM buffer (Invitrogen) and then distributed at a density of 3×10^4 cells/well in 384 plates (100 μL/well). • 2. HBSS buffer (Invitrogen) supplemented with 20 mM Hepes (Invitrogen) (pH 7.4) was mixed with the fluorescent probe (Fluo4 Direct, Invitrogen) and added to each well. Equilibrated with the cells for 60 minutes at 37° C. and then for 15 minutes at 22° C. • 3. The assay plate was placed in a microplate reader (CellLux, PerkinElmer). DMSO solution of the test compound and the positive control or HBSS buffer in appropriate concentration was added. […] Then the change in fluorescence intensity was measured. The fluorescence intensity is in proportion to the Ca^2+ ion concentration of the free cytosol. • 4. […] The standard positive control was BQ-788 and several concentrations were tested in each experiment and the data was analyzed using Prism to produce a concentration-response curve to calculate the IC50 values of the compounds. […]

[3] = Pharmacokinetic evaluation in Beagle dogs; type: in vivo; conditions: for Bioavailability F: 3 mg/kg
Protocol: Male Beagle dogs were used as the test animals in this study. The LC/MS/MS method was applied to quantify the plasma drug concentrations in Beagle dogs at different time points after administration of the test compound by intravenous injection or oral gavage to evaluate the pharmacokinetic profile of the test compound in Beagle dogs.
Beagle dogs (Male, 6-15 kg, above 6 months, Beijing Marshall Biotechnology Co.)
A clear solution of the test compound was administered to the Beagle dogs by intravenous injection (overnight fasting) or oral gavage (overnight fasting). At 0 h (before administration by intravenous injection) and at 0.0833, 0.25, 0.5, 1, 2, 4, 6, 8 and 24 h after administration by intravenous injection, about 500 μL of blood was collected from peripheral blood vessels into anticoagulation tubes supplemented with EDTA-K2 (Jiangsu Kangjian Medical Supplies Co., Ltd.). At 0 hours (before administration by oral gavage) and 0.25, 0.5, 1, 2, 4, 6, 8 and 24 hours after administration by oral gavage, about 500 μL of blood was collected from peripheral blood vessels into anticoagulation tubes supplemented with EDTA-K2. The mixture in the anticoagulation tube was vortexed thoroughly at 4° C. and the plasma was then centrifuged at 13,000 rpm for 10 minutes to obtain the plasma. Blood concentrations were determined by LC/MS/MS and the relevant pharmacokinetic parameters were calculated using WinNonlin™ Version 6.3 (Pharsight, Mountain View, CA) pharmacokinetics software with a non-compartmental model linear-log trapezoidal method.

Compound	Crystalline (form by XRPD, 3 days later) ([1]; Acetonitrile, 25 °C)	Status (3 days later) ([1]; Acetonitrile, 25 °C)	Crystalline (form by XRPD, 3 days later) ([1]; Acetonitrile, 50 °C)	Status (3 days later) ([1]; Acetonitrile, 50 °C)	Crystalline (form by XRPD, 3 days later) ([1]; Tetrahydrofuran, 25 °C)	Status (3 days later) ([1]; Tetrahydrofuran, 25 °C)	Crystalline (form by XRPD, 3 days later) ([1]; Tetrahydrofuran, 50 °C)	Status (3 days later) ([1]; Tetrahydrofuran, 50 °C)	Stability in solvents (conclusion in words) ([1]; acetonitrile and tetrahydrofuran at both 25° C. and 50° C.)	IC50 [2]	Area under the drug concentration-time curve ([3]; intravenous injection 1 mg/kg)	Area under the drug concentration-time curve ([3]; oral 3 mg/kg)	Peak concentration ([3]; oral 3 mg/kg)	Peak time ([3]; oral 3 mg/kg)	Bioavailability F ([3]; oral 3 mg/kg)	Bioavailability F ([3]; oral 3 mg/kg, listed as compound of formula (I))
COCCNS(=O)(=O)Nc1ncnc(OCCOc2ncc(Br)cn2)c1-c1ccc2c(c1)OCO2	Crystal Form A	Precipitation	Crystal Form A	Precipitation	Crystal Form A	Precipitation	Crystal Form A	Precipitation	Experimental conclusion: Crystal Form A of the compound of formula (I) had good stability in acetonitrile and tetrahydrofuran at both 25 °C and 50 °C	32 µM	–	–	–	–	–	–
COCCNS(=O)(=O)Nc1ncnc(OCCOc2ncc(Br)cn2)c1-c1ccc2c(c1)OCO2 [Compound of formula (I)]	–	–	–	–	–	–	–	–	–	–	7.56 µM·h	33.40 µM·h	12.75 µM	0.38 h	147%	> 50%
